Data taken from PMC6389625, “The Impact and Mechanism of a Novel Allosteric AMPA Receptor Modulator LCX001 on Protection Against Respiratory Depression in Rodents” (Frontiers in Pharmacology, 2019).

Assays:
male KM mice = assay: Acetic acid writhing test; format: in vivo, mouse; details: for inhibition of acetic acid-induced writhing: 10 min before 0.6% acetic acid
female KM mice = assay: Hot-plate test; format: in vivo, mouse
AMPA receptors = assay: [3H]AMPA binding to brainstem membranes; parameters: species or system rat; details: for specific [3H]AMPA binding: 200 nM [3H]AMPA
Description: Adult male SD rats (220–250 g) were euthanized by decapitation. The brainstems were dissected and homogenized for 2 min in 15 volumes of ice-cold 50 mM Tris–HCl buffer (pH 7.4) at 4°C. The homogenates were centrifuged at 1,000 g for 10 min, and the supernatants were collected and centrifuged at 40,000 g for 20 min. The pellets were dispersed in 50 mM Tris-HCl pH 7.4 and centrifuged at 40,000 g for 20 min. The last procedures were repeated a third time with a total of four washes to eliminate endogenous glutamate from the tissue. The resulting pellets were suspended in eight volumes of 0.3 M sucrose, then stored at –70°C until use. […] The binding reaction was performed in disposable glass culture tubes at 25°C for 60 min. […] The pellets were washed with ice-cold Tris-HCl pH 7.4 three times and dried with a piece of tissue paper. […] The binding activity on the filters was detected using a LS6500 scintillation counter (Beckman, Shanghai, China). […] Data are presented as the mean ± standard error of the mean (SEM). In the acetic acid writhing and hot-plate tests, experiments were performed blind. Compounds were injected by one researcher and the behavior or data was recorded by another researcher. The significance of change in respiratory parameters was evaluated by repeated measures two-way ANOVA (dose × time) followed by Bonferroni post-hoc tests for comparisons between groups. In the analysis of the acetic acid writhing test, hot-plate test and [^3H]AMPA binding assay, statistical evaluation between the treated groups and control group was performed by one-way ANOVA followed by Dunnett’s test. For saturation binding with [^3H]AMPA, Kd and Bmax values of different groups were obtained from fits to saturation binding curves with the KaleidaGraph programme. For whole-cell patch-clamp recordings, dose-response curves were fitted to the Hill equation using Origin 9.0 software (Originlab, MA, United States) and statistical significance was determined by one-way ANOVA followed by Dunnett’s test. For live cell imaging, two-way ANOVA followed by Bonferroni post-hoc tests was used to compare the treated groups and vehicle group.

[1] = biological target: T1, recombinant homomeric GluA2(R)flop receptor (Rattus norvegicus, UniProt P19491, Q607R); assay: Whole-cell patch-clamp recording of glutamate-evoked currents in HEK293 cells; format: cell-based
T1 construct: rat AMPA-GluA2(R)flop cDNA corresponding to the entire coding region; expressed in transfected cells
Description: A wild-type rat AMPA-GluA2(R)flop cDNA corresponding to the entire coding region was generated and cloned into the pcDNA^TM3.1(+) vector (Invitrogen, China, Catalog no. V790-20) by Sangon Biotech Co., Ltd. (Shanghai, China). […] For stable transfection, HEK293 cells (3 × 10^4 cells/well) were seeded in 24-well plates the day before transfection. The cells were grown to 70–90% confluency, and the transfection was performed by adding 1 μg of GluA2 expressing vector per well. Twenty-four hours after transfection, the normal medium was replaced with DMEM/F12 (Gibco, Shanghai, China) growth medium supplemented with 1.0 mg/ml G418 (Gibco, Shanghai, China) and cultured for 7 days. The surviving cells were pelleted and dispersed (100 cells/20 ml), and then seeded into 96-well plates in DMEM/F12 medium containing 500 μg/ml G418. Discrete colonies were picked after 15 days of selection. Western blotting and whole-cell patch-clamp recording were performed to test expression of the AMPA receptor GluA2 subunit and formation of an AMPA-GluA2 ion channel. G418 was kept at 500 μg/ml for the maintenance of stably transfected clones.
HEK293 cells that stably expressed AMPA-GluA2 receptors were seeded into the recording chamber 2 days before patch-clamp recordings, and the experiments were conducted in whole-cell configuration. Thin-walled borosilicate glass (Sutter Instrument, CA, United States) was pulled to make patch pipettes. […] The holding potential was set as -80 mV by an Axopatch-700B amplifier (Axon Instruments, CA, United States), and pClamp8 software (Axon Instruments, CA, United States) was used for data acquisition. Currents were recorded and digitized at 10 kHz. […] LCX001 and CX614 were dissolved in dimethyl sulfoxide (DMSO) before dilution with external bath solution (DMSO final concentration 0.5%). Dose-response curves were fitted to the Hill equation using Origin 9.0 software.

SEP-GluA1 = assay: Live cell imaging of SEP-GluA1 surface expression in primary medulla oblongata neurons; format: cell-based, rat; details: 47 μM final, added at 2 min; P > 0.05
SEP-GluA2(R) = biological target: T2, SEP-GluA2(R) (Rattus norvegicus, UniProt P19491, Q607R); assay: Live cell imaging of SEP-GluA2(R) surface expression in primary medulla oblongata neurons; format: cell-based; details: 47 μM final, added at 2 min
T2 construct: adenovirus by Hanbio biotechnology plasmid #24001; host or cells: primary medulla oblongata neurons of neonatal SD rats

[2] = test system: intracellular calcium concentration ([Ca^2+]i) of cultured medullary neurons; assay: Ca2+ imaging (Fluo-4 NW) in primary medulla oblongata neurons; format: cell-based, rat; details: 40 μM final at 7 min, after glutamate 18 μM and fentanyl or TH-030418 42 μM
rodents = assay: Observation of over-excitability after administration; format: in vivo; details: up to 60 mg/kg
[3] = test system: unanaesthetised adult male SD rats
rat dentate gyrus = test system: rat dentate gyrus; parameters: method as in Street et al., 2008; Mueller and Street, 2012; details: ref Street et al., 2008, Mueller and Street, 2012; cited from earlier work

T1 sequence (P19491 22-883 Q607R): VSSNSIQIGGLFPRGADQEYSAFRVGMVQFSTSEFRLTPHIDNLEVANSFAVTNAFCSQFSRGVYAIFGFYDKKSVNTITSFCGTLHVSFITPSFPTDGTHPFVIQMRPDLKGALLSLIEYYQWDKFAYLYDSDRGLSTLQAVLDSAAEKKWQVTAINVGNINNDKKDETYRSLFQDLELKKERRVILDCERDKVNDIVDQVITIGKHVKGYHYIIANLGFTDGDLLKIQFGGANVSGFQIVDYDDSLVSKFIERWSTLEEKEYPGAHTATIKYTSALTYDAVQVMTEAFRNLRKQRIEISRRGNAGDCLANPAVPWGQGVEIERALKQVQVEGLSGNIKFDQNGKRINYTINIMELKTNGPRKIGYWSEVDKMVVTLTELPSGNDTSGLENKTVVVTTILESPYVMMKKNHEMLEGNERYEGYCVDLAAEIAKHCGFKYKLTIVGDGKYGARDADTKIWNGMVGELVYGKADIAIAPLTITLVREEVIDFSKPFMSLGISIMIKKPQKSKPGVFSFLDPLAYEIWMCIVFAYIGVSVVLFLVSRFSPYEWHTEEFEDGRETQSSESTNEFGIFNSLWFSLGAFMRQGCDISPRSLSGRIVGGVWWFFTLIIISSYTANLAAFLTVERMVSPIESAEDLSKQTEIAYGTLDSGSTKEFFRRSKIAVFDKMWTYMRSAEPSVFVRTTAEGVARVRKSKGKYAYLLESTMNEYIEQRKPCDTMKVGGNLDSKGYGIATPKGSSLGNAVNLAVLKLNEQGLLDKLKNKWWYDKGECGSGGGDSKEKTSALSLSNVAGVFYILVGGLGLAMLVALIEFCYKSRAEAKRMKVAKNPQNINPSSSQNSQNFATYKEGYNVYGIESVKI
T2 sequence (P19491 22-883 Q607R): as above

## CN(C(=O)c1ccc2nonc2c1)[C@H]1CC[C@H](O)CC1 [LCX001, N-((1r,4r)-4-hydroxycyclohexyl)-N-methylbenzo[c][1,2,5]oxadiazole-5-carboxamid]
Male KM mice; 1.5 mg/kg i.v.
  inhibition of acetic acid-induced writhing: 30.76 ± 12.75%
Male KM mice; 3 mg/kg i.v.
  inhibition of acetic acid-induced writhing: 41.43 ± 11.32%
Male KM mice; 6 mg/kg i.v.
  inhibition of acetic acid-induced writhing: 85.35 ± 9.53%
Male KM mice; 12 mg/kg i.v.
  inhibition of acetic acid-induced writhing: 94.78 ± 2.74%
Male KM mice; LCX001 12 mg/kg i.v. 10 min before morphine 2.5 mg/kg s.c., P > 0.05
  impact on the analgesic effect of morphine (writhing test): no impact
Female KM mice; 1.5 mg/kg i.v., 10 min after administration, P > 0.05
  %MPE compared with vehicle: no effect
Female KM mice; 3 mg/kg i.v., 10 min after administration, P > 0.05
  %MPE compared with vehicle: no effect
Female KM mice; 6 mg/kg i.v., 10 min after administration
  %MPE: 30.18 ± 10.56%
Female KM mice; 12 mg/kg i.v., 10 min after administration
  %MPE: 65.27 ± 12.22%
Female KM mice; LCX001 12 mg/kg i.v. 10 min before morphine 10 mg/kg s.c., P > 0.05
  impact on the analgesic effect of morphine (hot-plate test): no impact
AMPA receptors; LCX001 10^-4 M, control 1595 ± 30
  specific [3H]AMPA binding: 2095 ± 87 cpm/mg protein
AMPA receptors; LCX001 10^-4 M, without LCX001 6.89 ± 0.11
  Bmax of [3H]AMPA after pre-incubation with LCX001: 7.77 ± 0.17 pmol/mg of protein
AMPA receptors; LCX001 10^-5 M, control 1595 ± 30
  specific [3H]AMPA binding: 1964 ± 27 cpm/mg protein
AMPA receptors; LCX001 10^-6 M, control 1595 ± 30
  specific [3H]AMPA binding: 1857 ± 20 cpm/mg protein
AMPA receptors; LCX001 10^-9–10^-7 M, control 1595 ± 30 cpm/mg protein
  specific [3H]AMPA binding: unchanged
[1]; 100 μM modulator
  nH of glutamate concentration-response curve in the presence of modulator: 0.84
[1]; 3.5 mM glutamate, 100 μM modulator, control 432 ± 27 pA
  glutamate evoked peak amplitude: 711 ± 20 pA
[1]; 10 mM glutamate, 100 μM modulator, control 752 ± 35 pA
  glutamate evoked peak amplitude: 1120 ± 60 pA
[1]; in the absence of glutamate
  current induced by compound alone: no current
SEP-GluA1
  SEP-GluA1 fluorescence intensity: no impact
SEP-GluA2(R)
  SEP-GluA2 fluorescence intensity: significant and fast increase
[2]
  effect on the increased level of [Ca^2+]i in response to fentanyl and TH-030418: significantly blocked
rodents
  over-excitability after administration: no evidence of over-excitability
[3]; LCX001 10 mg/kg i.v. 5 min after Nembutal 80 mg/kg i.p., P < 0.05
  effect on Nembutal-induced respiratory depression: ameliorated respiratory depression
[3]; LCX001 10 mg/kg i.v. 5 min after TH-030418 20 μg/kg i.v., P < 0.05
  effect on TH-030418-induced respiratory depression: alleviated the reduction of respiratory parameters
[3]; LCX001 10 mg/kg i.v. 5 min after fentanyl 120 μg/kg s.c., P < 0.05
  effect on fentanyl-induced respiratory depression (respiratory frequency, minute ventilation): effectively countered the inhibition of respiratory frequency and minute ventilation
[3]; LCX001 10 mg/kg i.v. 10 min before propofol 30 mg/kg i.v., P < 0.05
  effect on propofol-induced respiratory depression: reversed the acute reduction of respiratory frequency and minute ventilation
Rat dentate gyrus
  increase in the amplitude of synaptic currents: 21%

## CCCC(C)C1(CC)C(=O)NC(=O)NC1=O (stereo not shown) [Nembutal, reference compound]
[3]; male, SD, rat, in vivo
  respiratory frequency: 70.3 ± 2.7 % of control

## Cc1o[nH]c(=O)c1CC(N)C(=O)O (stereo not shown) [[^3H]AMPA, reference compound]
AMPA receptors; without LCX001, one-site model
  Bmax of [3H]AMPA saturation binding: 6.89 ± 0.11 pmol/mg of protein
AMPA receptors; without LCX001, one-site model, read-out: Kd of [3H]AMPA saturation binding
  Kd: 171 ± 5 nM

## CN1CC[C@]23c4c5ccc(O)c4O[C@H]2[C@@H](O)C=C[C@H]3[C@H]1C5 [morphine, reference compound]
Female KM mice; 10 mg/kg s.c., 30 min after injection, 55°C
  %MPE: about 100%

## CC(C)c1cccc(C(C)C)c1O [propofol, reference compound]
[3]; male, SD, rat, in vivo
  duration of propofol-mediated respiratory depression: 15 to 25 min
  respiratory frequency: 53.6 ± 5.8 % of control
